In ChEMBL document CHEMBL1135617, “Dicarboxylic acid bis(L-prolyl-pyrrolidine) amides as prolyl oligopeptidase inhibitors” (J Med Chem, 2002):
Blank lines part the entries; values can stand above or below the molecule they belong to.

How the values were obtained:
Prolyl endopeptidase [1] = biological target: T1, Prolyl endopeptidase (Sus scrofa, UniProt P23687); assay: In vitro inhibitory activity against prolyl oligopeptidase (POP) from pig brain; value ranges from (7800-54000)
Prolyl endopeptidase [2] = biological target: T1, Prolyl endopeptidase
Prolyl endopeptidase [3] = biological target: T1, Prolyl endopeptidase; assay: In vitro inhibitory activity against prolyl oligopeptidase (POP) from pig brain; value ranges from (72-92)
Prolyl endopeptidase [4] = biological target: T1, Prolyl endopeptidase; assay: In vitro inhibitory activity against prolyl oligopeptidase (POP) from pig brain; value ranges from (38-110)
Prolyl endopeptidase [5] = biological target: T1, Prolyl endopeptidase; assay: In vitro inhibitory activity against prolyl oligopeptidase (POP) from pig brain; value ranges from (59 - 100)
Prolyl endopeptidase [6] = biological target: T1, Prolyl endopeptidase; assay: In vitro inhibitory activity against prolyl oligopeptidase (POP) from pig brain; value ranges from (44-110)

T1 sequence (P23687 whole entry): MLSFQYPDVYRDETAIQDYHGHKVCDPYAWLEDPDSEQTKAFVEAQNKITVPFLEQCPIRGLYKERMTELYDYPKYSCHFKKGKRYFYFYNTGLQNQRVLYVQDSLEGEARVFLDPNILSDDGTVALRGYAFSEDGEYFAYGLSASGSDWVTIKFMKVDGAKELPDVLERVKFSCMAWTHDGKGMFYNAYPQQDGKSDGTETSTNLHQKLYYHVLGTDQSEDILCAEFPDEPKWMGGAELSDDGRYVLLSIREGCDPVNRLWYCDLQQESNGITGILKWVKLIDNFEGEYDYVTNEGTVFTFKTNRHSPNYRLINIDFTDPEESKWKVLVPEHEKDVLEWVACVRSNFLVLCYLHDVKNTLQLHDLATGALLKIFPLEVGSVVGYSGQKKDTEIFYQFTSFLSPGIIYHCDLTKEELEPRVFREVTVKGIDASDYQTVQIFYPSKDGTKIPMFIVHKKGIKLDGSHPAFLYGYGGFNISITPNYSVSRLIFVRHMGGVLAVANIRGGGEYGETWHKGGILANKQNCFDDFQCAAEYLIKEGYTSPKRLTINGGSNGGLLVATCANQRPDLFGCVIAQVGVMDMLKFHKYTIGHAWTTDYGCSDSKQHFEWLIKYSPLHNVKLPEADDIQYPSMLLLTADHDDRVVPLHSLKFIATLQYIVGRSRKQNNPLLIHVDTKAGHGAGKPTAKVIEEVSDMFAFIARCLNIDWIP

SMILES: O=C(C1CCCN1C(=O)c1ccccc1C(=O)N1CCC[C@H]1C(=O)N1CCCC1)N1CCCC1 (stereo partly specified)
IC50 (Prolyl endopeptidase [1]): 21000 nM

SMILES: O=C(CO)[C@@H]1CCCN1C(=O)[C@@H]1CCCN1C(=O)c1cccc(C(=O)N2CCCC2C(=O)N2CCCC2)c1 (stereo partly specified)
IC50 (Prolyl endopeptidase [2]): 0.39 nM

SMILES: O=C([C@@H]1CCCN1C(=O)c1ccccc1)N1CCCC1
IC50 (Prolyl endopeptidase [4]): 66 nM

Further lines, results first:

IC50 (Prolyl endopeptidase [3]): 81 nM
SMILES: O=C(C1CCCN1C(=O)c1ccc(C(=O)N2CCC[C@H]2C(=O)N2CCCC2)cc1)N1CCCC1 (stereo partly specified)

IC50 (Prolyl endopeptidase [5]): 77 nM
SMILES: O=C(C1CCCN1C(=O)CCC(=O)N1CCC[C@H]1C(=O)N1CCCC1)N1CCCC1 (stereo partly specified)

IC50 (Prolyl endopeptidase [6]): 68 nM
SMILES: O=C(C1CCCN1C(=O)CCCCC(=O)N1CCC[C@H]1C(=O)N1CCCC1)N1CCCC1 (stereo partly specified)
